Measured values reported in patent US20190062761A1, “ULTRASOUND METHOD” (INSTITUTE OF SCIENCE AND TECHNOLOGY AUSTRIA (IST AUSTRIA), priority 2016, published 2019).

Legend:
[1] = system: light-activated gene transcription plasmid pDAWN; test: Induction of mCherry expression by SCL and pDAWN in E. coli; assay type: cell-based
Protocol: (§1) For starting cultures, E. coli BL21 (DE) cells transformed with pDAWN were grown overnight (225 rpm, 37° C.) in LB medium (pH 7.0; Sigma) supplemented with 50 μg/ml kanamycin (Sigma). Cells were then diluted 100-fold in fresh LB medium (pH 8.0) and growth was allowed to reach OD600˜0.4 (7.3×10^7 CFU/ml) under non-inducing conditions (i.e. in the dark). For US experiments, 250 ml of these cultures were centrifuged (4700 rpm, 5 min) and resuspended in 200 ml M9 minimal medium (1×M9 salts, 2 mM MgSO4, 0.1 mM CaCl2, 0.4% glucose, buffered with 0.05 M Tris, pH 9.0). Each culture was treated with US for 3 h. After stimulation, aliquots (50 ml) were centrifuged, resuspended (in M9 minimal media) and incubated in 96-well plates overnight under non-inducing conditions (dark) to allow mCherry maturation.

[2] = system: M38K^Opto-mFGFR1 cells; test: EMT-like morphology changes (aspect ratio) in M38K Opto-mFGFR1 cells in response to luminol SCL; assay type: cell-based
Protocol: After additional 24 h, cells were photographed on the Nikon Ti300 microscope.

[3] = system: E. coli; details: treatment with US and luminol for 3 h (20 mM luminol, pH 9), M9 minimal media
Protocol: as §1
OD600 and mCherry fluorescence emission spectra (λex=543±10 nm, λem=575 to 695 nm in 10 nm increments) were measured with a (Biotek Synergy H1) microplate reader in a black 96-well flat-bottom plates (typical volume was 200 μl).

## COc1ccc(-c2cn3c(=O)c(C)nc-3c[nH]2)cc1.Cl [MCLA, 6-(4-Methoxyphenyl)-2-methyl-3,7-dihydroimidazo[1,2-a]pyrazin-3-one Hydrochloride]
[1]; MCLA-catalyzed SCL, pDAWN-V28I, 2 h US stimulation, 2 μM MCLA, pH 7
  induction of mCherry expression: two

## Nc1cccc2c(=O)[nH][nH]c(=O)c12 [luminol, 5-Amino-2,3-dihydro-1,4-phthalazinedione]
[1]; {}
  induction of mCherry production (increase compared to control experiments): ~5 fold
[2]; luminol SCL, two chambers configuration, 20 mM luminol, US 585 kHz, 64% amplitude, 3 h
  morphological changes in M38K^Opto-mFGFR1 cells: induced epithelial-mesenchymal transition (EMT)-like morphological changes
[3]
  reduction of E. coli viability indicators (OD600 and CFUs): ~50%

## COc1cc(OC)cc(-c2cc3cnc(N)nc3nc2NC(=O)NC(C)(C)C)c1 [PD166866]
[2]; 10 μM for 1 h before US stimulation (585 kHz, 64% amplitude, 3 h)
  effect of luminol SCL on cell morphology after pre-treatment with inhibitor: abolished
